Experimental findings from patent US7601868B2, “Amine derivative” (Takeda Pharmaceutical Company Limited, priority 2003, dated 2009) are described below.

In this assay the target is T1, SLC-1 (Homo sapiens, UniProt Q99705).
T1 construct: expressed in transfected cells; host or cells: CHO cells (human SLC-1 clone 57 / rat SLC-1 clone 44), membrane fraction
The experiment in a line: Antagonistic activity using GTPγS binding assay (SLC-1 expression CHO cell membrane fraction, MCH-stimulated). The format is biochemical, human/rat. Conditions: [35S]-GTPγS binding to SLC-1 expression CHO cell membrane fraction in the presence of MCH, 25° C., 1 hr; read-out: Inhibitory activity (IC50: nM). On the procedure:
Determination of Antagonistic Activity of Test Compound Using GTP γ S Binding Assay
Using human SLC-1 expression CHO cell clone 57 and rat SLC-1 expression CHO cell clone 44 described in WO01/82925, SLC-1 expression CHO cell membrane fractions were prepared by the following method. In phosphate buffered saline (pH 7.4) supplemented with 5 mM EDTA (ethylenediamine tetraacetic acid) were suspended human and rat SLC-1 expression CHO cells (1×10^8) and centrifuged. Homogenate buffer (10 ml, 10 mM NaHCO3, 5 mM EDTA, pH 7.5) was added to the pellets of the cells and, using Polytron Homogeniser, the mixture was homogenated. The supernatant obtained after centrifugation at 400×g for 15 min was further centrifuged at 100,000×g for 1 hr to give precipitate of the membrane fraction. […]
The antagonistic activity of the test compound was determined as follows. […] Liquid scintillator (50 ml) was added to the glass filter and the residual radioactivity was determined by a liquid scintillation counter. Binding inhibition (%)=(radioactivity upon addition of test compound and MCH−radioactivity upon addition of DMSO solution)/(radioactivity upon addition of MCH−radioactivity upon addition of DMSO solution)×100
From the binding inhibition (%), IC50 of the test compound was calculated.
For orientation: Binding of GTPγS marks nucleotide exchange on a G protein.

T1 sequence (Q99705 whole entry, species assumed): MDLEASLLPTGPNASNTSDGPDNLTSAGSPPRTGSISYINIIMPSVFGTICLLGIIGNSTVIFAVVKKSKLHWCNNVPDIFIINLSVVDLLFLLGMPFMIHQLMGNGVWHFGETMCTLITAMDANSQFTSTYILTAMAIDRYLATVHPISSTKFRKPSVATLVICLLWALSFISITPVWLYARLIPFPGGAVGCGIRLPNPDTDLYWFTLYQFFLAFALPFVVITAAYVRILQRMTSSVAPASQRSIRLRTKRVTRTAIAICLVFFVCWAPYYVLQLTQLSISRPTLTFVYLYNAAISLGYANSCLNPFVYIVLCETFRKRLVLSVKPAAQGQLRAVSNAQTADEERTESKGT

The IC50 is the concentration needed to halve the response being measured. Regarding `CC(c1ccc(CCNC(=O)c2ccc(-c3ccc(Cl)cc3)cc2)cc1)N1CCCCCC1` (stereo not shown) [Example 67, N-(2-{4-[1-(1-azepanyl)ethyl]phenyl}ethyl)-4′-chloro[1,1′-biphenyl]-4-carboxamide], the IC50 came to 3 nM.
